Legend:
[1] = Surface tension of blood containing blood modifying agent, pendant drop method; conditions: 0.10 mass % in sheep defibrinated blood, 35 ° C.
Experimental: The surface tension of blood containing a blood modifying agent was measured by the pendant drop method, using a Drop Master500 contact angle meter by Kyowa Interface Science Co., Ltd. The surface tension was measured after adding a prescribed amount of blood modifying agent to sheep defibrinated blood, and thoroughly shaking. The measurement was accomplished automatically with a device, and the surface tension γ was determined by the following formula (see FIG. 13). γ=g×ρ×(de)^2×1/H The density ρ was measured at the temperatures listed in Table 5, according to JIS K 2249-1995, “Density test methods and density/mass/volume conversion tables”, “5. Vibrating density test method”. The measurement was accomplished using a DA-505 by Kyoto Electronics Co., Ltd.

[2] = Description: The term “solubility” used herein in regard to water solubility includes cases where the sample completely dissolves in deionized water to form a homogeneous mixture, and cases where the sample is completely emulsified. Here, “completely” means that no mass of the sample remains in the deionized water.

Row | Compound | Surface tension [1] [mN/m] | Water solubility [2] [g]
1 | CCCCCCCCCCCCOC(=O)CCCCCCCCCCC [ELECTOL WE20, Ester of dodecanoic acid (C12) and dodecyl alcohol (C12)] | 58.8 | 
2 | CCCCCCCC(=O)OCC(COC(=O)CCCCCCC)OC(=O)CCCCCCC [PANACET 800] |  | <0.05

From US9387135B2, “Absorbent article” (UNICHARM CORPORATION, priority 2012, dated 2016)
